This test deals with Plasmodium berghei. Nature of the test: Antimalarial activity against Plasmodium berghei infected in ICR mice (Mus musculus) assessed as delay in mortality at 160 mg/kg, perorally for 3 days. The test is classed as functional, organism-based. The arrangement: dose 160 mg/kg.
Take `OC(c1cc(C(F)(F)F)nc2c(C(F)(F)F)cccc12)C1CCCCN1` (racemic): the survival time is 17 days.
With `COCCCNCC(O)c1cc(C(F)(F)F)nc2c(C(F)(F)F)cccc12` (stereo not drawn), the survival time was 9 days.
The same measure for `CC(C)CC(C)NCC(O)c1cc(C(F)(F)F)nc2c(C(F)(F)F)cccc12` (stereo not drawn): 2 days.
The same measure for `CSCCCNCC(O)c1cc(C(F)(F)F)nc2c(C(F)(F)F)cccc12` (stereo not drawn): 17 days; for `COCCNCC(O)c1cc(C(F)(F)F)nc2c(C(F)(F)F)cccc12` (stereo not drawn): 15 days; for `CNCC(O)c1cc(C(F)(F)F)nc2c(C(F)(F)F)cccc12` (stereo not drawn): 25 days.
With `CC1C(NCC(O)c2cc(C(F)(F)F)nc3c(C(F)(F)F)cccc23)CC2CC1C2(C)C` (stereo not drawn), the survival time came out at 3 days.
With `CCCCNCC(O)c1cc(C(F)(F)F)nc2c(C(F)(F)F)cccc12` (stereo not drawn), the survival time was found to be 8 days.

The values are drawn from ChEMBL document CHEMBL1156893, “Structure-activity relationships amongst 4-position quinoline methanol antimalarials that inhibit the growth of drug sensitive and resistant strains of Plasmodium falciparum” (Bioorg Med Chem Lett, 2010).
